Holding throughout (type): biochemical
One assay has as its target T1, COX-1 (Ovis aries, UniProt P05979).
T1 sequence (P05979 25-600): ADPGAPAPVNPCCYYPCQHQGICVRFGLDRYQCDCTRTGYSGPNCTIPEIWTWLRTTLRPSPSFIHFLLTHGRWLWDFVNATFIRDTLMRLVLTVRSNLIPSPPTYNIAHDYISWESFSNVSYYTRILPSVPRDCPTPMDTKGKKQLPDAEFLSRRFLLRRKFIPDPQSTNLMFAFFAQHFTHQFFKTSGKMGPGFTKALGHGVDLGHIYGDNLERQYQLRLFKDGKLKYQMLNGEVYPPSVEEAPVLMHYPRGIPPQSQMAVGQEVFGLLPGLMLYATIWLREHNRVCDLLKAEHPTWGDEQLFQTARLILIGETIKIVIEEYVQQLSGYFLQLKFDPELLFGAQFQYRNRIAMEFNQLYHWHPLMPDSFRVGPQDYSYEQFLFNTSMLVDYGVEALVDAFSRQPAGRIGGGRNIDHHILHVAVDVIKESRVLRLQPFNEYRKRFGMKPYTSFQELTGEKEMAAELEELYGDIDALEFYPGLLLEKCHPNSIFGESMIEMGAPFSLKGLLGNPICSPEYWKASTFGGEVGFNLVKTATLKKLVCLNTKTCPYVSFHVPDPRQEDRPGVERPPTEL
The assay can be described thus: In vitro COX inhibitory assay. The note with it: for Inhibition of COX-1 in comparison to indomethacin: result in words; for inhibition at 50 µg/mL / inhibition at 100 µg/mL / inhibition at 150 µg/mL: read-out: Inhibition of COX-1 (%).

The target of a further assay is T2, COX-2 (Homo sapiens, UniProt P35354).
T2 sequence (P35354 18-604): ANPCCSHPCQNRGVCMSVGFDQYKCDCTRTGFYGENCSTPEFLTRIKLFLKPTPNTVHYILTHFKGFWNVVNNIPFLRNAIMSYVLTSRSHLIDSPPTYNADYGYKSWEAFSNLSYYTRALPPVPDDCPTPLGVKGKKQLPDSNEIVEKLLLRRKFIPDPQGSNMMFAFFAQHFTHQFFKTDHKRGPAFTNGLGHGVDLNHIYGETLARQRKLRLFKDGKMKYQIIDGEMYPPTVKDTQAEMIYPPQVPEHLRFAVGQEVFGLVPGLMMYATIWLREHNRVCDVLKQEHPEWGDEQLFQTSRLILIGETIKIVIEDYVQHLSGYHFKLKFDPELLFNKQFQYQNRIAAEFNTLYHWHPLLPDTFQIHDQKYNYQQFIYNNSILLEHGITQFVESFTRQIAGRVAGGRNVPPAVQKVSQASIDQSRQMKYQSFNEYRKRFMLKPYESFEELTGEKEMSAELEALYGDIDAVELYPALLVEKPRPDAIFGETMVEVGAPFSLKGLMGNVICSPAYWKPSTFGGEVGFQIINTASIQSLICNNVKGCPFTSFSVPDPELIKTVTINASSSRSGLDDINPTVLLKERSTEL
In words: In vitro COX inhibitory assay. The note with it: for Inhibition of COX-2 in comparison to indomethacin: result in words; for Selectivity index: COX-1/COX-2 selectivity index; for inhibition at 50 µg/mL / inhibition at 100 µg/mL / inhibition at 150 µg/mL: read-out: Inhibition of COX-2 (%).

The next assay has as its target T3, egg albumin (Gallus gallus, UniProt P01012).
T3 sequence (P01012 2-386): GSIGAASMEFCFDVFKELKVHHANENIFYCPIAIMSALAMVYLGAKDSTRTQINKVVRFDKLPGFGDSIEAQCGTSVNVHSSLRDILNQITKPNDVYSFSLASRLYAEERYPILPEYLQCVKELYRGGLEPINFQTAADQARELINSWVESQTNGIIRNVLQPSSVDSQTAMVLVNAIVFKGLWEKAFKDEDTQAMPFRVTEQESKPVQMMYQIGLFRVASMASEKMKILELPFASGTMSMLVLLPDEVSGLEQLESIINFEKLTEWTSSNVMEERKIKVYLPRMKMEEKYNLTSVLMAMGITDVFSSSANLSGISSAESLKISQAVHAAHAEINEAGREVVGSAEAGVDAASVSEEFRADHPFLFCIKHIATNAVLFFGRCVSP
In words: Inhibition of protein denaturation method. The note with it: read-out: Inhibition of protein denaturation (%).

The term IC50 denotes the concentration needed to halve the response being measured.

For the compound `COc1ccc(C2N=C(N)Nc3nc(C(=O)Nc4ccc(S(N)(=O)=O)cc4)nn32)cc1` (centres unmarked) [Compound 9, 5-Amino-7-(4-methoxyphenyl)-N-(4-sulfamoylphenyl)-4,7-dihydro-[1,2,4]-triazolo[1,5-a][1,3,5]triazine-2-carboxamide], the “Inhibition of COX-1 in comparison to indomethacin” value (“Inhibition of COX-1 in comparison” for short) at COX-1 is listed as “less inhibition”. For the same compound, the “Inhibition of COX-2 in comparison to indomethacin” value (“Inhibition of COX-2 in comparison” below) at COX-2 was “less inhibition”. Further, on egg albumin, the inhibition at 50 µg/mL was 51%, the inhibition at 100 µg/mL is 55.8%, the inhibition at 200 µg/mL was determined as 61.6% and the inhibition at 300 µg/mL was 69.5%.
Consider `NC1=NC(c2ccccc2O)n2nc(C(=O)Nc3ccc(S(N)(=O)=O)cc3)nc2N1` (centres unmarked) [Compound 11, 5-Amino-7-(2-hydroxyphenyl)-N-(4-sulfamoylphenyl)-4,7-dihydro-[1,2,4]-triazolo[1,5-a][1,3,5]triazine-2-carboxamide], for which, at COX-1, the IC50 is 141 µM, the inhibition at 50 µg/mL worked out at 41.28 ± 0.04%, the inhibition at 100 µg/mL stood at 63.43 ± 0.04% and the inhibition at 150 µg/mL worked out at 80.12 ± 0.03%. On COX-2, the IC50 was 96.7 µM, the Selectivity index came out at 1.46, the inhibition at 50 µg/mL was found to be 60.3 ± 0.05% and the inhibition at 100 µg/mL was 81.99 ± 0.01%. Further, the inhibition at 150 µg/mL on COX-2 came to 98.97 ± 0.06%. Further, on egg albumin, the inhibition at 50 µg/mL was 83.4%, the inhibition at 100 µg/mL is 88.2%, the inhibition at 200 µg/mL stood at 93.9% and the inhibition at 300 µg/mL was found to be 98.2%.
With `CN(C)c1ccc(C2N=C(N)Nc3nc(C(=O)Nc4ccc(S(N)(=O)=O)cc4)nn32)cc1` (centres unmarked) [Compound 12, 5-Amino-7-(4-(dimethylamino)phenyl)-N-(4-sulfamoylphenyl)-4,7-dihydro-[1,2,4]-triazolo[1,5-a][1,3,5]triazine-2-carboxamide], on COX-1, it took 192 µM to reach half-maximal inhibition (IC50), the inhibition at 50 µg/mL was 28.64 ± 0.04%, the inhibition at 100 µg/mL turned out to be 53.24 ± 0.03% and the inhibition at 150 µg/mL was determined as 70.68 ± 0.04%. Besides, at COX-2, the IC50 was 92.9 µM, the Selectivity index was 2.06, the inhibition at 50 µg/mL turned out to be 59.1 ± 0.01% and the inhibition at 100 µg/mL amounted to 80.98 ± 0.02%. For the same compound, the inhibition at 150 µg/mL on COX-2 came out at 98.4 ± 0.02%. On egg albumin, the inhibition at 50 µg/mL was 55.8%, the inhibition at 100 µg/mL was found to be 60.5%, the inhibition at 200 µg/mL amounted to 66.3% and the inhibition at 300 µg/mL was determined as 74.2%.
On to `NC1=NC(c2ccco2)n2nc(C(=O)Nc3ccc(S(N)(=O)=O)cc3)nc2N1` (centres unmarked) [Compound 4, 5-Amino-7-(furan-2-yl)-N-(4-sulfamoylphenyl)-4,7-dihydro-[1,2,4]-triazolo[1,5-a][1,3,5]triazine-2-carboxamide], for which, at COX-1, the IC50 is 99.5 µM, the inhibition at 50 µg/mL came out at 62.43 ± 0.01%, the inhibition at 100 µg/mL amounted to 80.64 ± 0.01% and the inhibition at 150 µg/mL came to 90.02 ± 0.02%. Besides, on COX-2, inhibition was half-maximal at 69 µM (IC50), the Selectivity index is reported as 1.44, the inhibition at 50 µg/mL was 90.03 ± 0.02% and the inhibition at 100 µg/mL was 95.11 ± 0.01%. For the same compound, the inhibition at 150 µg/mL at COX-2 turned out to be 98.92 ± 0.02%. Also, on egg albumin, the inhibition at 50 µg/mL came out at 90.3%, the inhibition at 100 µg/mL was 95%, the inhibition at 200 µg/mL is 99.2% and the inhibition at 300 µg/mL stood at 91.3%.
As to `NC1=NC(c2ccccc2Cl)n2nc(C(=O)Nc3ccc(S(N)(=O)=O)cc3)nc2N1` (centres unmarked) [Compound 8, 5-Amino-7-(2-chlorophenyl)-N-(4-sulfamoylphenyl)-4,7-dihydro-[1,2,4]-triazolo[1,5-a][1,3,5]triazine-2-carboxamide], at COX-1, the IC50 was 186 µM, the inhibition at 50 µg/mL is 30.12 ± 0.02%, the inhibition at 100 µg/mL stood at 55.41 ± 0.05% and the inhibition at 150 µg/mL is 71.23 ± 0.05%. At COX-2, the IC50 was 89.3 µM, the Selectivity index amounted to 2.07, the inhibition at 50 µg/mL is 62.64 ± 0.01% and the inhibition at 100 µg/mL is 64.78 ± 0.01%. Moreover, the inhibition at 150 µg/mL on COX-2 turned out to be 71.61 ± 0.01%. For the same compound, on egg albumin, the inhibition at 50 µg/mL amounted to 59.5%, the inhibition at 100 µg/mL worked out at 64.2%, the inhibition at 200 µg/mL was determined as 70% and the inhibition at 300 µg/mL worked out at 77.9%.
Regarding `NC1=NC(/C=C/c2ccccc2)n2nc(C(=O)Nc3ccc(S(N)(=O)=O)cc3)nc2N1` (centres unmarked) [Compound 6, (E)-5-Amino-7-styryl-N-(4-sulfamoylphenyl)-4,7-dihydro-[1,2,4]-triazolo[1,5-a][1,3,5]triazine-2-carboxamide], the “Inhibition of COX-1 in comparison” value at COX-1 is given as “less inhibition”. Besides, at COX-2, the “Inhibition of COX-2 in comparison” value is recorded as “less inhibition”. Further, at egg albumin, the inhibition at 50 µg/mL was found to be 53.7%, the inhibition at 100 µg/mL is 58.4%, the inhibition at 200 µg/mL was determined as 67.4% and the inhibition at 300 µg/mL was 72.1%.
With `NC1=NC(c2cccc3ccccc23)n2nc(C(=O)Nc3ccc(S(N)(=O)=O)cc3)nc2N1` (centres unmarked) [Compound 10, 5-Amino-7-(naphthalen-1-yl)-N-(4-sulfamoylphenyl)-4,7-dihydro-[1,2,4]-triazolo[1,5-a][1,3,5]triazine-2-carboxamide], at COX-1, the “Inhibition of COX-1 in comparison” value is “less inhibition”. The “Inhibition of COX-2 in comparison” value on COX-2 is on record as “less inhibition”. For the same compound, on egg albumin, the inhibition at 50 µg/mL was 55%, the inhibition at 100 µg/mL was 59.7%, the inhibition at 200 µg/mL was 65.5% and the inhibition at 300 µg/mL is 73.4%.
On to `NC1=NC(C2N=C(N)Nc3nc(C(=O)Nc4ccc(S(N)(=O)=O)cc4)nn32)n2nc(C(=O)Nc3ccc(S(N)(=O)=O)cc3)nc2N1` (centres unmarked) [Compound 7, 5,5′-Diamino-N2,N2′-bis(4-sulfamoylphenyl)-4,4′,7,7′-tetrahydro-[7,7′-bi[1,2,4]triazolo[1,5-a][1,3,5]triazine]-2,2′-dicarboxamide], for which the “Inhibition of COX-1 in comparison” value at COX-1 was “less inhibition”. Moreover, on COX-2, the “Inhibition of COX-2 in comparison” value was “less inhibition”. Further, on egg albumin, the inhibition at 50 µg/mL was 54.7%, the inhibition at 100 µg/mL was determined as 59.5%, the inhibition at 200 µg/mL was 65.3% and the inhibition at 300 µg/mL turned out to be 73.2%.
As for `NC1=NC(c2cccc(O)c2)n2nc(C(=O)Nc3ccc(S(N)(=O)=O)cc3)nc2N1` (centres unmarked) [Compound 13, 5-Amino-7-(3-hydroxyphenyl)-N-(4-sulfamoylphenyl)-4,7-dihydro-[1,2,4]-triazolo[1,5-a][1,3,5]triazine-2-carboxamide], on COX-1, the “Inhibition of COX-1 in comparison” value is recorded as “less inhibition”. At COX-2, the “Inhibition of COX-2 in comparison” value was “less inhibition”. On egg albumin, the inhibition at 50 µg/mL was 55%, the inhibition at 100 µg/mL is 59.8%, the inhibition at 200 µg/mL amounted to 65.7% and the inhibition at 300 µg/mL is 73.6%.
With `Cc1ccccc1C1N=C(N)Nc2nc(C(=O)Nc3ccc(S(N)(=O)=O)cc3)nn21` (centres unmarked) [Compound 5, 5-Amino-N-(4-sulfamoylphenyl)-7-(o-tolyl)-4,7-dihydro-[1,2,4]-triazolo[1,5-a][1,3,5]triazine-2-carboxamide], at COX-1, 180 µM corresponded to half-maximal inhibition (IC50), the inhibition at 50 µg/mL is 32.51 ± 0.03%, the inhibition at 100 µg/mL was 56.64 ± 0.01% and the inhibition at 150 µg/mL was found to be 74.32 ± 0.03%. Further, on COX-2, it took 97.7 µM to reach half-maximal inhibition (IC50), the Selectivity index came to 1.84, the inhibition at 50 µg/mL amounted to 60.01 ± 0.05% and the inhibition at 100 µg/mL was 67.25 ± 0.02%. The inhibition at 150 µg/mL on COX-2 was 75.31 ± 0.01%. For the same compound, on egg albumin, the inhibition at 50 µg/mL amounted to 59.7%, the inhibition at 100 µg/mL was determined as 64.5%, the inhibition at 200 µg/mL was determined as 70.3% and the inhibition at 300 µg/mL worked out at 78.2%.

The record behind these values is publication PMC11146149 (RSC Advances, 2024).
